Measured values as given in ChEMBL document CHEMBL5465560, “Selectivity Literature for EUbOPEN Chemogenomic Library” (2024).
Values belong to the compound of their own block, whether it stands above or below them.

Legend:
[1] = target: Cyclin-dependent kinase-like 3 (Homo sapiens) (UniProt Q8IVW4); settings: at 10 µM
[2] = target: T1, Histone-lysine N-methyltransferase EHMT1 (Homo sapiens) (UniProt Q9H9B1); settings: at 10 µM
T1 sequence (whole entry): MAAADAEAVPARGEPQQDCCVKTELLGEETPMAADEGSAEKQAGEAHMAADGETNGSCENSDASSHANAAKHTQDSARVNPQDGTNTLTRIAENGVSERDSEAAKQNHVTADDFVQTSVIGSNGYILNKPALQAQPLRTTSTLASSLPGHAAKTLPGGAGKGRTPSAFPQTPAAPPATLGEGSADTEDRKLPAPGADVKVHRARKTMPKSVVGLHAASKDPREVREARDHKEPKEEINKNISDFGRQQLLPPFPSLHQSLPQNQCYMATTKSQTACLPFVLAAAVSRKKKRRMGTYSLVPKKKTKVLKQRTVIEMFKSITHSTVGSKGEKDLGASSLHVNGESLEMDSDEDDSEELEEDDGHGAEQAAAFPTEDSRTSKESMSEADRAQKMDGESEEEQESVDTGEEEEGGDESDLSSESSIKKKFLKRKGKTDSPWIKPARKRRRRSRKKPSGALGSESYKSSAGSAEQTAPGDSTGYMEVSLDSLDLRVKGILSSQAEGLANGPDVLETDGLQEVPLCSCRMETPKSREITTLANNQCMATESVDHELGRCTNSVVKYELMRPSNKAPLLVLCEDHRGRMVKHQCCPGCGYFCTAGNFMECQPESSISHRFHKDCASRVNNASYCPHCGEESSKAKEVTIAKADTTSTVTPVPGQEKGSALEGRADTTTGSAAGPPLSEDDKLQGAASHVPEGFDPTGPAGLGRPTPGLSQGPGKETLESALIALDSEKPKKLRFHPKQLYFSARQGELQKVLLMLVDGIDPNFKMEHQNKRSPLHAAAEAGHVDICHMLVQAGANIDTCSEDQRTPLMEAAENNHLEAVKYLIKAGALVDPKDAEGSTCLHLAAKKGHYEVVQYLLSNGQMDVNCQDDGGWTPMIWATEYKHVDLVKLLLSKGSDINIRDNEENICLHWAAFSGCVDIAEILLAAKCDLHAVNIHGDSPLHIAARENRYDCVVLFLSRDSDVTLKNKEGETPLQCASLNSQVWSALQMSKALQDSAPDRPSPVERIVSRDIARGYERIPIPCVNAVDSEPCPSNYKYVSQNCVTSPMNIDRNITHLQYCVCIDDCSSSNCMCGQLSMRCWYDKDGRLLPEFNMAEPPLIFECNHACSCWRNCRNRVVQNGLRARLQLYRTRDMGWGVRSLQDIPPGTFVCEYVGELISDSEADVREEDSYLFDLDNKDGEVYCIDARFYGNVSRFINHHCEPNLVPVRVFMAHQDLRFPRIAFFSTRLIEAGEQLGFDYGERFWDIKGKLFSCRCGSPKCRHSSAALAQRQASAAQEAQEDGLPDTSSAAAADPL

[3] = target: T2, Serine/threonine-protein kinase Nek3 (Homo sapiens) (UniProt P51956); assay: Selectivity interaction (KinomeScan (DiscoverX)) EUB0000229b NEK3; settings: at 10 µM
T2 sequence (whole entry): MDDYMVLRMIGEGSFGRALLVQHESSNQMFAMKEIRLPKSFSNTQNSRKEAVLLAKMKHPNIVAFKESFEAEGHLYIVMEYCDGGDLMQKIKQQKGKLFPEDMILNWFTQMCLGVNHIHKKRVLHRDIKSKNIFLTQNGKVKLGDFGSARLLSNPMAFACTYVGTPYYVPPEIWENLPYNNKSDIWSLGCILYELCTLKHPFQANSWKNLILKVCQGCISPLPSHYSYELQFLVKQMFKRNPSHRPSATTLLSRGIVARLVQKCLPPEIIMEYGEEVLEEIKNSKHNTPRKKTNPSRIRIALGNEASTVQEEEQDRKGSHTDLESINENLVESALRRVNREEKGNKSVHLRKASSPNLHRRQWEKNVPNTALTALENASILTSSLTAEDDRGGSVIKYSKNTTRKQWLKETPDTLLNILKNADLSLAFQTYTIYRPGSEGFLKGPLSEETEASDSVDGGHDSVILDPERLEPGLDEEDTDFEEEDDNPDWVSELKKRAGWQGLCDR

[4] = target: T3, NUAK family SNF1-like kinase 2 (Homo sapiens) (UniProt Q9H093); assay: Selectivity interaction (ActivX KiNativ screen (ex vivo kinase selectivity in human PBMCs)) EUB0001619a NUAK2; type: cell-based; settings: PBMC, at 1 µM
T3 sequence (whole entry): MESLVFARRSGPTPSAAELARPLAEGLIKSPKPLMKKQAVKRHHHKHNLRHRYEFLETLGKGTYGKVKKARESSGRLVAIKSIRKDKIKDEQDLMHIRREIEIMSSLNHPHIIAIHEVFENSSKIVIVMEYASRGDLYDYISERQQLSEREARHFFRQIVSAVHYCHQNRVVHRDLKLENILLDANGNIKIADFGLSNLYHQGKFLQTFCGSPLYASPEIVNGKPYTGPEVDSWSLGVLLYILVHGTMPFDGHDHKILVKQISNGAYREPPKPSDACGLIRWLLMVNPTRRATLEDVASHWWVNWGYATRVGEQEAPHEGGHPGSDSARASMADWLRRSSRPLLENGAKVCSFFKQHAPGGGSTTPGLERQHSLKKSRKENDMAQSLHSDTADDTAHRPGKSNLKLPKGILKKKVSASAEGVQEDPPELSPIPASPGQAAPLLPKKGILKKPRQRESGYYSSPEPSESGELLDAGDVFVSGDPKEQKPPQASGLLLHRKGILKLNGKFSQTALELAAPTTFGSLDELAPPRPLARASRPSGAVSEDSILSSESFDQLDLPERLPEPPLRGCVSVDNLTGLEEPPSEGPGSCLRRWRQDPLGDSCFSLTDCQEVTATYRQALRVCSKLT

Chain of Cyclin-dependent kinase-like 3 (Homo sapiens) (Q8IVW4 whole entry, looked up): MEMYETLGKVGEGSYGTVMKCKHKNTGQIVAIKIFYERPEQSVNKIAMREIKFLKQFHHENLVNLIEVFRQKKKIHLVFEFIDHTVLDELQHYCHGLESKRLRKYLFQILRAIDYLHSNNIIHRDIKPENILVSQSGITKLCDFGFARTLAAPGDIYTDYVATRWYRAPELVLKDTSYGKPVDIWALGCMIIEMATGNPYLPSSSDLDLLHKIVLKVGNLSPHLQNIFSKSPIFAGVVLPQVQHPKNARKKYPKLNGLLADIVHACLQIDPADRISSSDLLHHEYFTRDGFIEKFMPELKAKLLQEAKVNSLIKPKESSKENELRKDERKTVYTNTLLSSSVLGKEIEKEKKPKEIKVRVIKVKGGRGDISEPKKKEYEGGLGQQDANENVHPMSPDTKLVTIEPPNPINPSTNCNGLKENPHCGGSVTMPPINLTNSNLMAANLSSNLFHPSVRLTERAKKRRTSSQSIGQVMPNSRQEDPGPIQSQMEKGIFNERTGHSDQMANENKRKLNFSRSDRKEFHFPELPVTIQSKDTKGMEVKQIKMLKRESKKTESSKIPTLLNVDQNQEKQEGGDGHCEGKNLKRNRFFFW

SMILES: Cc1cc([C@@H](C)Nc2ccccc2C(=O)O)c2nc(N3CCOCC3)cc(=O)n2c1 [AZD-6482]
% of control [1]: 90%

% activity [2]: > 90%
SMILES: CNCCN1CCC(c2cc(CN(C)C(=O)c3cccc(Oc4ccccc4)c3)ccn2)CC1

SMILES: COc1cc(N(C)c2ccnc3ccc(C(F)(F)F)cc23)cc(OC)c1OC
% binding [3]: 80%

SMILES: N#Cc1cccc(-c2c[nH]c3ncnc(N4CCOCC4)c23)c1
% of inhibition [4]: 18%
